Test results published in paper PMC3748009, “Novel Small-Molecule AMP-Activated Protein Kinase Allosteric Activator with Beneficial Effects in db/db Mice” (PLoS ONE, 2013).

What was measured:
[1] = molecular target: T1, recombinant human AMPK α2β2γ1 (Homo sapiens, UniProt P54646); experiment: Scintillation proximity assay (SPA), AMPK activation; type: biochemical
T1 construct: made in house
Protocol: (§1) Before the SPA assay, 200 nmol/l recombinant AMPK protein (α1β1γ1, α2β1γ1, α1β2γ1, α2β2γ1, α1(1–394), α1(1–335), α1(1–312)) was constructed, expressed, purified and fully phosphorylated as described previously. The SPA reactions were performed in 96-well plates in a final volume of 50 µl containing 20 mmol/l Tris-HCl, pH 7.5, 5 mmol/l MgCl2, 1 mmol/l DTT, 2 µmol/l biotin-SAMS, 2 µmol/l ATP and 7.4×10^3 Bq/well [γ-^33P]ATP. The reactions were initiated by the addition of 50 nmol/l recombinant AMPK protein to the reaction solutions, followed by incubation at 30°C for 2 hr. The reactions were then terminated by the addition of 40 µl of stop solution containing 80 µg streptavidin-coated SPA beads per well, 50 mmol/l EDTA and 0.1% Triton X-100 in PBS, pH 7.5, followed by incubation for 1 hr. Finally, 160 µl of suspension solution containing 2.4 mol/l CsCl, 50 mmol/l EDTA and 0.1% Triton X-100 in PBS, pH 7.5, was added to the reaction solution to suspend the SPA beads completely. The SPA signals were measured in a Wallac Microbeta plate counter (PerkinElmer, Waltham, MA, USA) 30 min later.

[2] = molecular target: T2, recombinant human AMPK α2β1γ1 (Homo sapiens, UniProt P54619+P54646); experiment: as above; type: biochemical
T2 construct: made in house
T2 sequence (P54646 whole entry): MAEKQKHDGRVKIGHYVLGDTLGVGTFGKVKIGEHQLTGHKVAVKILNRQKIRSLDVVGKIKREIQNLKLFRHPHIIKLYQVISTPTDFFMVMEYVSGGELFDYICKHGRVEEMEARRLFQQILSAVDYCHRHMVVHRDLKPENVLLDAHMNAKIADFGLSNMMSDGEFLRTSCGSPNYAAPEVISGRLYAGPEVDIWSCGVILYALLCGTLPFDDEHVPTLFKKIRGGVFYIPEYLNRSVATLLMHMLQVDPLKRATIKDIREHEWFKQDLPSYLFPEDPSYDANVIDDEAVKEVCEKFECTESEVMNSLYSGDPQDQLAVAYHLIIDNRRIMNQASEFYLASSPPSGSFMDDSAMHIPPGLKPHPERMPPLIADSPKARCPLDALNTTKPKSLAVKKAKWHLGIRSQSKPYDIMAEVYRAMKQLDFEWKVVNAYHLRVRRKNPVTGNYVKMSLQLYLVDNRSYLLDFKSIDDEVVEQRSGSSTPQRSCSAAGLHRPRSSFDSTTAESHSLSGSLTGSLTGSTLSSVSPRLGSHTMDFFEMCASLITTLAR
T2 sequence (Q9Y478 whole entry partner): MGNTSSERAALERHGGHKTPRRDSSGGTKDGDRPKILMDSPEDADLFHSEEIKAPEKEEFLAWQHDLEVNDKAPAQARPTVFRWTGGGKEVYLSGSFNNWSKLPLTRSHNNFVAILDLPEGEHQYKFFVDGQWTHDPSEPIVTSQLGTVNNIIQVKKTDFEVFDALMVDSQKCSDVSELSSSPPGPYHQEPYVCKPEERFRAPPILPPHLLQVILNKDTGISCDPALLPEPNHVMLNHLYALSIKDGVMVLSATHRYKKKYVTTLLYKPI
T2 sequence (P54619 whole entry): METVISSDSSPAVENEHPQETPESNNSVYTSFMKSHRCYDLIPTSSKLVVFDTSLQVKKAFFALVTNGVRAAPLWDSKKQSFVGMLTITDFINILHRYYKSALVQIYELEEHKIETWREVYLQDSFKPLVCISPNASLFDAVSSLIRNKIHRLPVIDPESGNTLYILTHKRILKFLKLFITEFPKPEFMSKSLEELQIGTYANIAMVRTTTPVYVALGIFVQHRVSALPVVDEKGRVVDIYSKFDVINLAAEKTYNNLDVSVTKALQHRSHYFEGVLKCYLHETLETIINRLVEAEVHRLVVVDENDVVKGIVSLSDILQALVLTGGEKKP
Protocol: as §1

[3] = molecular target: T3, recombinant human AMPK α1β2γ1 (Homo sapiens, UniProt O43741+P54619+Q13131); experiment: as above; type: biochemical
T3 construct: made in house
T3 sequence (Q13131 10-559 limits assumed): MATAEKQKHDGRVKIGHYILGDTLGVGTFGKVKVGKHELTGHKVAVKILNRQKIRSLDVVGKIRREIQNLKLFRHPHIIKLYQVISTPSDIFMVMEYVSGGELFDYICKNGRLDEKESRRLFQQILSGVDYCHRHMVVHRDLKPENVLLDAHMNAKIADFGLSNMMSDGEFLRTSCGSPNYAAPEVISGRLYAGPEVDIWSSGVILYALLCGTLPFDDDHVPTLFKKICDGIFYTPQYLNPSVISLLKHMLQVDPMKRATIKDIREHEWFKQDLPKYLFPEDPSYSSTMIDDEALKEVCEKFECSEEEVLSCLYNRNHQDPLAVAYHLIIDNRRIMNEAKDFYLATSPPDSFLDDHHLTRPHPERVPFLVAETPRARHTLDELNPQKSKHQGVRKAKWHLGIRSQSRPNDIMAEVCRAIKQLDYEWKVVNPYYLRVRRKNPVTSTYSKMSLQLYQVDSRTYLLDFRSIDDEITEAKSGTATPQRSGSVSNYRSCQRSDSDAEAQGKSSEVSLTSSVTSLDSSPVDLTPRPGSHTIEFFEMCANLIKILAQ
T3 sequence (O43741 whole entry partner): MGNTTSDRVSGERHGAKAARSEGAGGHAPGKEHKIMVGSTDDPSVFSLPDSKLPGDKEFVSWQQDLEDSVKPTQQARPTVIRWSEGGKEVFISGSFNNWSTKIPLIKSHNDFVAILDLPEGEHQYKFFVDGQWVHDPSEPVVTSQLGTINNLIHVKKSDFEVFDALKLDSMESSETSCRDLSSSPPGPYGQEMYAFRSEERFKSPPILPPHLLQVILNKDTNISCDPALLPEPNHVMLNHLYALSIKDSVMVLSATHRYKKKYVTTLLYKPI
T3 sequence (P54619 whole entry partner): as the sequence (P54619 whole entry) above
Protocol: as §1

[4] = molecular target: T4, recombinant human AMPK α2β2γ1 (Homo sapiens, UniProt O43741+P54619+P54646); experiment: as above; type: biochemical
T4 construct: made in house
T4 sequence (P54646 whole entry): as the sequence (P54646 whole entry) above
T4 sequence (O43741 whole entry partner): as the sequence (O43741 whole entry partner) above
T4 sequence (P54619 whole entry partner): as the sequence (P54619 whole entry) above
Protocol: as §1

[5] = molecular target: T5, recombinant human AMPK α1β2γ1 (Homo sapiens, UniProt Q13131); experiment: as above; type: biochemical
T5 construct: made in house
T5 sequence (Q13131 10-559 limits assumed): as the sequence (Q13131 10-559 limits assumed) above
T5 sequence (O43741 whole entry partner): as the sequence (O43741 whole entry partner) above
T5 sequence (P54619 whole entry partner): as the sequence (P54619 whole entry) above
Protocol: as §1

AMPK α1(1–394) = AMPK α1(1–394) (Homo sapiens, UniProt Q13131); experiment: Dephosphorylation of AMPK α1 truncation by PP2Cα; type: biochemical; design: dephosphorylation by PP2Cα on AMPK α1(1–394) and α1(1–335); settings: Fig. S1A
Sequence of AMPK α1(1–394) (Q13131 10-403): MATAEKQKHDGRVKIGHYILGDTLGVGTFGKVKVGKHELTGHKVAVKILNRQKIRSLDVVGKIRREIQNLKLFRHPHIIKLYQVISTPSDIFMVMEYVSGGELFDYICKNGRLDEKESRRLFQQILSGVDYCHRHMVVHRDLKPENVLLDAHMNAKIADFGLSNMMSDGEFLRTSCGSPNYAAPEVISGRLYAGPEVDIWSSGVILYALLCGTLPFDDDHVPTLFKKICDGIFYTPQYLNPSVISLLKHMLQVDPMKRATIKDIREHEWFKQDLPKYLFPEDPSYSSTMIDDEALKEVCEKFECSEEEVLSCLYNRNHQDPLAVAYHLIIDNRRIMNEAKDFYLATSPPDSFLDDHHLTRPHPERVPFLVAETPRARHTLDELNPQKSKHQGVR
Protocol: (§2) The dephosphorylation of AMPK was performed as described previously, [24].

AMPK α1(1–335) = AMPK α1(1–335) (Homo sapiens, UniProt Q13131); experiment: Dephosphorylation of AMPK α1 truncation by PP2Cα; type: biochemical; design: dephosphorylation by PP2Cα on AMPK α1(1–394) and α1(1–335); settings: Fig. S1B
Sequence of AMPK α1(1–335) (Q13131 10-344): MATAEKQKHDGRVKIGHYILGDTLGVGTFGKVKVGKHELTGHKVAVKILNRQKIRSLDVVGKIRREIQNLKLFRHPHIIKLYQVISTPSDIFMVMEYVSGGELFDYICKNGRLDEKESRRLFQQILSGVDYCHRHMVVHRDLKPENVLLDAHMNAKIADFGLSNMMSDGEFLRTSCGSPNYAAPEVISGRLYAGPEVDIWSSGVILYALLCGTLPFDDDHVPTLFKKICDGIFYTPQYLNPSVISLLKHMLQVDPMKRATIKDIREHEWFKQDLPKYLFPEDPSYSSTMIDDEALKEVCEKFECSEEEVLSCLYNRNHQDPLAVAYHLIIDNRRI
Protocol: as §2

rat primary hepatocytes [6] = experiment: Fatty acid synthesis ([14C] acetate incorporation) in rat primary hepatocytes; type: cell-based; settings: insulin 10 nmol/l, 24 hr exposure
Protocol: Fatty acid synthesis in rat primary hepatocytes was assayed by measuring [^14C] acetate incorporation into lipids. Rat hepatocytes were treated for 20 hr with ZLN024 at the concentrations described in FBS-free DMEM with or without 10 nmol/l insulin, followed by 4 hr incubation in fresh medium containing 0.1 µCi/ml sodium [^14C] acetate (3.7×103 Bq/ml). Thereafter, cells were washed three times by ice-cold PBS and analyzed as previously described, [22].

L6 myotubes = experiment: Mitochondrial membrane potential in L6 myotubes; type: cell-based; settings: various concentrations, 3 hr, vs DMSO
Text: (§3) These assays were described previously, [25].

rat primary hepatocytes [7] = experiment: Glucose production (output) in rat primary hepatocytes; type: cell-based; settings: 5 hr, concentration-dependent
Text: as §3

AMPK α1β1γ1 = AMPK α1β1γ1 (Homo sapiens, UniProt P54619+Q13131+Q9Y478); experiment: PP2Cα-catalyzed dephosphorylation of AMPK Thr-172; type: biochemical; settings: 5 µmol/l ZLN024
Sequence of AMPK α1β1γ1 (Q13131 10-559 limits assumed): as the sequence (Q13131 10-559 limits assumed) above
Sequence of AMPK α1β1γ1 (Q9Y478 whole entry): as the sequence (Q9Y478 whole entry partner) above
Sequence of AMPK α1β1γ1 (P54619 whole entry): as the sequence (P54619 whole entry) above
Protocol: as §2

AMPK α2β1γ1 = AMPK α2β1γ1 (Homo sapiens, UniProt P54619+P54646+Q9Y478); experiment: PP2Cα-catalyzed dephosphorylation of AMPK Thr-172; type: biochemical; settings: 5 µmol/l ZLN024
Sequence of AMPK α2β1γ1 (P54646 whole entry): as the sequence (P54646 whole entry) above
Sequence of AMPK α2β1γ1 (Q9Y478 whole entry): as the sequence (Q9Y478 whole entry partner) above
Sequence of AMPK α2β1γ1 (P54619 whole entry): as the sequence (P54619 whole entry) above
Protocol: as §2

HeLa cells = experiment: AMPK and ACC phosphorylation in HeLa cells deficient in LKB1; type: cell-based
Text: as §3

[8] = molecular target: T6, Recombinant human protein phosphatase-2Cα (PP2Cα) (Homo sapiens, UniProt P35813); experiment: PP2Cα activity with pNPP as substrate; type: biochemical; settings: varying concentrations of ZLN024
T6 construct: purchased Abcam (Cambridge, UK)
T6 sequence (P35813 1-382): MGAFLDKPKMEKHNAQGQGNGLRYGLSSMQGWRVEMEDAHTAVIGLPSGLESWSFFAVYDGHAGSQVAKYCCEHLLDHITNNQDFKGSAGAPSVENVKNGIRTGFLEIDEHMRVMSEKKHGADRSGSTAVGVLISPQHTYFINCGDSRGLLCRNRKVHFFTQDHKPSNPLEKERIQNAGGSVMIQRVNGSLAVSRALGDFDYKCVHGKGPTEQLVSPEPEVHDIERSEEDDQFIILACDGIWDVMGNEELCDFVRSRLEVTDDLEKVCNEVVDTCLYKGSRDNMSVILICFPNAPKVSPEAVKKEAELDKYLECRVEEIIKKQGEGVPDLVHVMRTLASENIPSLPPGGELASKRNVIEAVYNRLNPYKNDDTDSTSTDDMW
Protocol: Recombinant human protein phosphatase-2Cα (PP2Cα) was obtained from Abcam (Cambridge, UK). PP2Cα activity was measured using pNPP as a substrate. The activity was measured in a SpectraMAX 340 plate reader at 37°C and […] for 120 sec. The assay was carried out in a 96-well plate in a final volume of 100 µl containing 50 mmol/l Tris-HCl, pH 7.6, 2 mmol/l DTT, 10 mmol/l MnCl2 and 10 mmol/l pNPP; the PP2Cα enzyme concentration was 400nmol/l.

T1 sequence (P54646 whole entry): as the sequence (P54646 whole entry) above
T1 sequence (O43741 whole entry partner): as the sequence (O43741 whole entry partner) above
T1 sequence (P54619 whole entry partner): as the sequence (P54619 whole entry) above

Cc1ccc(OCCSc2ncccn2)c(Br)c1 [ZLN024]
activation of α2β2γ1 activity [1]: 1.6 fold | EC50 ([2]; SPA): 950 nM | activation of α2β1γ1 activity ([2]; SPA): 1.7 fold | additional activation of AMPK α2β1γ1 ([2]; ZLN024 increased to 10 µmol/l in the presence of saturating AMP (12.5 µmol/l)): 1.3 fold | EC50 [3]: 1100 nM | EC50 [4]: 130 nM | activation of α1β2γ1 activity [5]: 1.7 fold | effect on dephosphorylation of AMPK α1(1–394) by PP2Cα (AMPK α1(1–394)): did not affect the dephosphorylation | effect on dephosphorylation of AMPK α1(1–335) by PP2Cα (AMPK α1(1–335)): did not affect the dephosphorylation | insulin stimulated synthesis of fatty acid (rat primary hepatocytes [6]): significantly decreased | mitochondrial membrane potential (MMP) (L6 myotubes): not affected | glucose production (rat primary hepatocytes [7]): obviously repressed | protection of AMPK α1β1γ1 against dephosphorylation by PP2Cα (AMPK α1β1γ1): provided protection against dephosphorylation | protection of AMPK α2β1γ1 against dephosphorylation by PP2Cα (AMPK α2β1γ1): provided protection against dephosphorylation | phosphorylation of AMPK and ACC (HeLa cells; 3 hr, concentration-dependent): stimulated | time to peak of AMPK and ACC phosphorylation (HeLa cells; ZLN024 20 µmol/l): ≤ 30 min | time to start of increase of AMPK and ACC phosphorylation (HeLa cells; ZLN024 20 µmol/l): ≤ 15 min | effect on PP2Cα activity [8]: no significant inhibition
